According to patent US12116636B2, “Methods for evaluating tumor cell spheroids using 3D microfluidic cell culture device” (Dana-Farber Cancer Institute, Inc., priority 2017, dated 2024):

How the values were obtained:
[1] = tested on: MC38 MDOTS; test: Live/dead (AO/PI) staining of MDOTS in 3D microfluidic culture; assay type: cell-based, murine; details: Cmpd1 1 μM + αPD-1, 5 days; not significant vs single-agent PD-1
Protocol: (§1) Fresh tumor specimens (murine and human patients) were received in media (DMEM) on ice and minced in a 10 cm dish (on ice) using sterile forceps and scalpel. Minced tumor was resuspended in DMEM (4.5 mM glucose, […] sodium pyruvate, 1:100 penicillin-streptomycin) (Coming CellGro, Manassas, VA)+10% FBS (Gemini Bio-Products, West Sacramento, CA), 100 U/mL collagenase type IV (Life Technologies, Carlsbad, CA), and 15 mM HEPES (Life Technologies, Carlsbad, CA), except for CT26 tumors that were prepared in RPMI. Samples were pelleted and resuspended in 10-20 mL media. Red blood cells were removed from visibly bloody samples using RBC Lysis Buffer (Boston Bio-Products, Ashland, MA). […]
Dual labeling was performed by loading microfluidic device with Nexcelom ViaStain™ (fluorescent cell viability dye) AO/PI Staining Solution (Nexcelom, CS2-0106). Following incubation with the dyes (20 minutes at room temperature in the dark), images were captured on a Nikon Eclipse 80i fluorescence microscope equipped with Z-stack (Prior) and CoolSNAP CCD camera (Roper Scientific). […] Live and dead cell quantitation was performed by measuring total cell area of each dye. […]

[2] = tested on: CT26 spheroids (lacking immune cells); test: Cytokine profiling of cell line spheroids lacking immune cells; assay type: cell-based, murine; details: Day 1, 3, 6 vs vehicle
Protocol: as §1
Two multiplex assays were performed utilizing a bead-based immunoassay approach, the Bio-Plex Pro™ Human Cytokine 40-plex Assay (Cat #171AK99MR2) and Bio-Plex Pro™ Mouse Cytokine Panel 1, 23-plex (Cat #M60009RDPD) on a Bio-plex 200 system (Cat #171000201). […] Fold changes relative to the MDOT/PDOT control were calculated and plotted as log 2FC. Lower and upper limits of quantitation (LLOQ/ULOQ) were imputed from standard curves for cytokines above or below detection. […]

[3] = tested on: CT26 and EMT6 cells; test: Re-implantation of CT26 and EMT6 cells after combination therapy (immunologic memory); assay type: in vivo, mice; details: previously treated with anti-PD-L1 + Compound 1
Protocol: Combination studies were performed by vivoPharm (Hummelstown, PA, USA). All procedures used in the performance of these studies were carried out in accordance with vivoPharm's Standard Operating Procedures, with particular reference to US_SOPvP_EF0314 “General Procedures for Efficacy Studies.” CT26 colon carcinoma cells (1×10^6 cells/mouse in 100 μL, passage 2-3) were re-suspended in serum-free DMEM and implanted in the upper right flank of 11-12 week old female Balb/c mice (Charles River Laboratories). Mice were randomized into four groups of 10 using a matched pair distribution method based on tumor size for CT26. Treatment was initiated 12 days post-inoculation with mean tumor volume at start of dosing of 125.85 mm^3. Vehicle or Compound 1 (40 mg/kg) was administered by oral gavage daily for 26 days and isotype control or a reverse chimera anti-PD-L1 cloned from literature reports (e.g., Deng, R. et al. MAbs (2016), the content of which is incorporated herein by reference in entirety) and placed into a mouse IgG1 framework (10 mg/kg) was administered every 5 days for a total of six doses. Investigators were not blinded to treatment groups. […] Mice were scarified on Day 13 and lung metastases were quantified (small≤1 mm, medium>1 mm and ≤3 mm, large>3 mm). No large lung metastases were detected.

N#Cc1cc(-c2ncnc(Nc3ccc(N4CCN(C5COC5)CC4)cc3)n2)ccc1OC1CCOCC1 [Compound 1, 5-(4-((4-(4-(oxetan-3-yl)piperazin-1-yl)phenyl)amino)-1,3,5-triazin-2-yl)-2-((tetrahydro-2H-pyran-4-yl)oxy)benzonitrile]
ex vivo killing of MC38 MDOTS, combination treatment [1]: enhanced | immune suppressive cytokine elaboration by CT26 cell line spheroids [2]: effectively blocked | growth of reimplanted CT26 in mice with exceptional responses to combination therapy [3]: no growth
